Assay results published in patent US6767738B1, “Method of isolating adult mammalian CNS-derived progenitor stem cells using density gradient centrifugation” (The Salk Institute for Biological Studies, priority 1999, dated 2004).

Assays:
[1] = tested on: c-fos mRNA (Trk receptor tyrosine kinase signaling); assay: RT-PCR analysis of neurotrophin-dependent c-fos induction; format: cell-based, rat; details: pretreatment with RA for 6 days
Protocol: (§1) Cell Culture. For proliferating conditions, clonal stem cells (AP14) were cultured in Dulbecco's Modified Eagles Medium/Ham's F12 (DMEM/F12, 1:1) containing N2 supplement (Gibco BRL, Gaithersburg, Md.) and 20 ng/ml rhFGF-2 (provided by A. Baird, Prizm Pharmaceuticals Inc., La Jolla, Calif.). Culture dishes (Becton Dickinsin Labware, Lincoln Park, N.J.) were coated with polyomithine and mouse laminin as previously described by Ray, et al., Proliferation, differentiation and long-term culture of primary hippocampal neurons, Proc Natl Acad Sci USA 90:3602-3606 (1993). For differentiation experiments, cells were plated into polyornithine/laminin coated glass chamber slides (Nunc, Naperville, Ill.) at a density of 2.5—103 per cm2. The cells were incubated for 24 hrs in normal N2 medium containing 20 ng/ml FGF-2, and then the medium was replaced by N2 medium containing 0.5% […] (FBS) and 0.01% DMSO (control solvent) or […] all-trans retinoic acid (Sigma, St. Louis, Mo.). For further differentiation, the medium was replaced by N2 medium containing 0.5% FBS and one of the following: sterile water (control solvent), mouse 2.55 NGF (50 ng/ml, Boehringer Mannheim, Indianapolis, Ind.), rhBDNF (20 ng/ml, Alomone Labs, Jerusalem, Israel), rhNT-3 (40 ng/ml, Genentech, South San Francisco, Calif.). The medium was replaced every two days. For inhibition of the tyrosine kinase activity of the Trk receptors, K-252a (100 nM, Calbiochem, San Diego, Calif.) was added to the medium.
Reverse Transcription-PCR Analysis. Total RNA from stem cells was isolated using RNeasy Total RNA Kits (Qiagen, Chatsworth, Calif.) according to manufacturer's instructions. Fifty nanograms of total RNA was reverse transcribed using avian myeloblastosis virus reverse transcriptase (Promega, Madison, Wis.) with random hexamers ([…]) as primers in a […] reaction mixture. For PCR amplification, two sets of specific oligonucleotide pairs ([…]) were used: one directed to the transcript of interest, and one for a constitutively expressed transcript, either ribosomal protein L27 or L27a. Reactions were performed in a […] reaction mixture containing 10 mM Tris-Cl (pH 8.4), 50 mm KCl, 1.5 mM MgC12, […] each of the four dNTPs, 2 mCi of [a-32P]dCTP and 5 units of Taq polymerase (Promega) using a thermal cycler (Perkin-Elmer, Foster City, Calif.) with a regimen of 1 min at 94° C., 2 min at 60° C. (55° C. for trk receptors) and 2 min at 72° C. for 23 cycles Fifty microliters of each reaction was analyzed by electrophoresis on 8% polyacrylamide gels followed by autoradiography. […] Under these conditions, the L27 amplification product was directly proportional to the amount of input RNA, up to 50 ng total RNA. Oligonucleotide primers used are as follows: […]
RA treatment also results in neurotrophin-dependent induction of c-fos. Transient and rapid induction of immediate early genes such as c-fos is a well-characterized response to extracellular stimuli in neural cells. c-fos is induced after neurotrophin treatment in cultured […] hippocampal or cortical cells and the signaling cascade following c-fos induction is considered to be integral to subsequent steps in differentiation. To determine whether upregulation of mRNAs for trk receptors and p75NGFR observed in the stem cell cultures results in the acquisition of functional Trk-dependent stimulation of c-fos, mRNA was examined by RT-PCR analysis after stimulating RA-treated cells with neurotrophins. […]

c-Fos = c-Fos immunofluorescence double labeling after neurotrophin stimulation; format: cell-based, rat; details: RA for 6 days prior to stimulation by neurotrophins
Protocol: as §1, with “For further differentiation, the medium was replaced by N2 medium containing 0.5% FBS and one of the following: sterile water (control solvent), mouse 2.55 NGF (50 ng/ml, Boehringer Mannheim, Indianapolis, Ind.), rhBDNF (20 ng/ml, Alomone Labs, Jerusalem, Israel), rhNT-3 (40 ng/ml, Genentech, South San Francisco, Calif.). The medium was replaced every two days. For inhibition of the tyrosine kinase activity of the Trk receptors, K-252a (100 nM, Calbiochem, San Diego, Calif.) was added to the medium.” left out
Immunofluorescence. […] Both the average percentage and the absolute number +/− SEM of immunofluorescent cells were determined by counting 10 or 50 high power fields (20×) visualized under fluorescence. The total number of cells was counted using nuclear counterstaining with 4′,6diamidino-2-phenylindole (DAPI, Sigma). […]

## CC1=C(/C=C/C(C)=C/C=C/C(C)=C/C(=O)O)C(C)(C)CCC1 [RA, all-trans retinoic acid]
[1]
  baseline expression of c-fos mRNA: increased
c-Fos
  number of c-Fos-positive cells: significantly enhanced
